Patent US20240374590A1, “COMPOSITIONS AND METHODS FOR TREATING CANCER” (A2A PHARMACEUTICALS, INC., priority 2021, published 2024)

Experiments:
[1] = tested on: JIMT-1 human breast cancer cell line; assay: Cell viability assay (SRB) in JIMT-1; format: cell-based; settings: 72 hours after treatment, read-out: JIMT1 IC50
Method: (§1) Human colon carcinoma cell line HCT-116 was a kind gift from Igor Ronninson from University of South Caroli, Columbia, USA. Human breast cancer cell line, JIMT-1 was kindly provided by Ali Osmay Güre from Bilkent University, Ankara, Turkey. Cells were cultured in Dulbecco's modified Eagle's medium (Lonza, NJ, USA), supplemented with 10% fetal bovine serum (FBS, Lonza), 1% non-essential amino acid (NEAA), 2 mM L-glutamine (Sigma Aldrich, MO, USA) and 50 U/ml penicillin/streptomycin (P/S). HCT-116 cells were cultured in McCoy's 5A (modified) (Gibco) medium supplemented with FBS, NEAA, L-glutamine and P/S. All cell lines were tested regularly using MycoAlert Mycoplasma Detection Kit (Lonza). The cumulative length of the cells between thawing and use in the experiments was less than 20 passages.
(§2) Newly synthesized molecules were dissolved in 100% DMSO to yield a stock concentration of 10 mM. For cell viability assay, JIMT-1 (3×10^3 cells/well) and HCT-116 (4×10^3), cells were seeded into 96-well plates, and 24 hours after cell seeding inhibitor treatments were performed at different concentrations. Cell viability was measured 72 hours after treatment with Sulforhodamine B (SRB, Sigma Aldrich) assay as recommended by the manufacturer.

[2] = tested on: HCT-116 human colon carcinoma cell line; assay: Cell viability assay (SRB) in HCT-116; format: cell-based; settings: 72 hours after treatment, read-out: HCT116 IC50
Method: as §1, §2

Row | IC50 [1] [nM] | IC50 [2] [nM] | SMILES
1 | 91 | 146 | COc1ccc(-c2cc(Nc3ccnc(N4CCOC(C(F)(F)F)C4)n3)[nH]n2)c(F)c1 (centres unmarked) [Compound 139, N-(3-(2-fluoro-4-methoxyphenyl)-1H-pyrazol-5-yl)-2-(2-(trifluoromethyl)morpholino)pyrimidin-4-amine]
2 | 107 | 457 | COc1ccc(-c2cc(Nc3ccnc(N4CC5COCC5C4)n3)[nH]n2)c(F)c1 (centres unmarked) [Compound 140, N-(3-(2-fluoro-4-methoxyphenyl)-1H-pyrazol-5-yl)-2-(tetrahydro-1H-furo[3,4-c]pyrrol-5(3H)-yl)pyrimidin-4-amine]
3 | 41 | 163 | COc1ccc(-c2cc(Nc3ccnc(N4CC5CC5C4)n3)[nH]n2)c(F)c1 (centres unmarked) [Compound 141, 2-(3-azabicyclo[3.1.0]hexan-3-yl)-N-(3-(2-fluoro-4-methoxyphenyl)-1H-pyrazol-5-yl)pyrimidin-4-amine]
4 | 266 | 1210 | COc1ccc(-c2cc(Nc3ccnc(N4CCC5(CCC5)CC4)n3)[nH]n2)c(F)c1 [Compound 142, N-(3-(2-fluoro-4-methoxyphenyl)-1H-pyrazol-5-yl)-2-(7-azaspiro[3.5]nonan-7-yl)pyrimidin-4-amine]
5 | 426 | 1010 | COc1ccc(-c2cc(Nc3ccnc(N4CCC(C)(C)CC4)n3)[nH]n2)c(F)c1 [Compound 143, 2-(4,4-dimethylpiperidin-1-yl)-N-(3-(2-fluoro-4-methoxyphenyl)-1H-pyrazol-5-yl)pyrimidin-4-amine]
6 | 119 | 330 | COc1ccc(-c2cc(Nc3ccnc(N4CCC5(CC4)CC5)n3)[nH]n2)c(F)c1 [Compound 144, N-(3-(2-fluoro-4-methoxyphenyl)-1H-pyrazol-5-yl)-2-(6-azaspiro[2.5]octan-6-yl)pyrimidin-4-amine]
7 | 479 | 534 | COc1ccc(-c2cc(Nc3ccnc(N4CC5(COC5)C4)n3)[nH]n2)c(F)c1 [Compound 146, N-(3-(2-fluoro-4-methoxyphenyl)-1H-pyrazol-5-yl)-2-(2-oxa-6-azaspiro[3.3]heptan-6-yl)pyrimidin-4-amine]
8 | 213 | 986 | COc1ccc(-c2cc(Nc3ccnc(N4CCN(C)CC4)n3)[nH]n2)c(F)c1 [Compound 148, N-(3-(2-fluoro-4-methoxyphenyl)-1H-pyrazol-5-yl)-2-(4-methylpiperazin-1-yl)pyrimidin-4-amine]
9 | 65 | 115 | COc1ccc(-c2cc(Nc3ccnc(N4C[C@@H](C)O[C@H](C)C4)n3)[nH]n2)c(F)c1 [Compound 149, 2-((2R,6R)-2,6-dimethylmorpholino)-N-(3-(2-fluoro-4-methoxyphenyl)-1H-pyrazol-5-yl)pyrimidin-4-amine]
10 | 16 | 23 | COc1ccc(-c2cc(Nc3ccnc(N4C[C@H](C)O[C@@H](C)C4)n3)[nH]n2)c(F)c1 [Compound 150, 2-((2S,6S)-2,6-dimethylmorpholino)-N-(3-(2-fluoro-4-methoxyphenyl)-1H-pyrazol-5-yl)pyrimidin-4-amine]
11 | 18 | 52 | COc1ccc(-c2cc(Nc3ccnc(N4CCCC4)n3)[nH]n2)c(F)c1 [Compound 151, N-(3-(2-fluoro-4-methoxyphenyl)-1H-pyrazol-5-yl)-2-(pyrrolidin-1-yl)pyrimidin-4-amine]
12 | 5 | 11 | COc1ccc(-c2cc(Nc3ccnc(N4CCCCC4)n3)[nH]n2)c(F)c1 [Compound 152, N-(3-(2-fluoro-4-methoxyphenyl)-1H-pyrazol-5-yl)-2-(piperidin-1-yl)pyrimidin-4-amine]

Row | SMILES | IC50 [1] [nM] | IC50 [2] [nM]
13 | COc1ccc(-c2cc(Nc3ccnc(N4C5CCC4CC(C)C5)n3)[nH]n2)c(F)c1 (centres unmarked) [Compound 145, N-(3-(2-fluoro-4-methoxyphenyl)-1H-pyrazol-5-yl)-2-(3-methyl-8-azabicyclo[3.2.1]octan-8-yl)pyrimidin-4-amine] | 101 | 279
